Source: US6011032A, “Heterocyclic compounds for treating myocardial ischemia” (Pierre Fabre Medicament, priority 1995, dated 2000)
Where a name gives a salt, the structure may show the parent alone.

Experiments:
[1] = system: anaesthetized rabbits; assay: Reinfusion ischemia in anaesthetized rabbits (iv); type: in vivo, rabbit; conditions: 0.16 mg/kg iv
Description: (§1) The compounds of the present invention of formula I and the therapeutically acceptable salts thereof have advantageous pharmacological properties. These derivatives are active on cardiomyocytes by inhibiting the diastolic contraction induced by veratrine in isolated rat left atrium. These compounds are also active in vivo during reinfusion ischemia in anaesthetized rabbits: they inhibit the electrical disturbances in the ECG caused by the reinfusion ischemia without any appreciable hemodynamic effect and are not cardiac depressors. Such compounds are useful for preventive or curative purposes in the treatment of coronaropathies and cardiac and cerebral ischemia in all their forms and in the treatment of atherosclerosis.
Compounds of the present invention are also active via the venous route in the test of reinfusion ischemia in anaesthetized rabbits according to the method of Verscheure et al. (Fundam Clin Pharmacol (1993) 7, 385). The results for the compounds of Examples 1, 2, 11 and 15 are given in the table below by way of non-limiting example: […]

[2] = system: isolated rat left atrium; assay: Inhibition of contraction of isolated rat left atrium by veratrine; type: cell-based
Description: as §1
Inhibition of contraction of isolated rat left atrium by veratrine was carried out according to the technique of Le Grand et al. (Naunyn--Schmiedeberg's Arch Phazmacol (1993) 348 pp. 184-190). The results are given in the table below, in which the IC50 values are expressed in micromoles for certain compounds, by way of non-limiting examples: […]

CC(C)NCC(O)COc1ccc(CC(N)=O)cc1 (centres unmarked) [Atenolol, reference compound]
% arterial pressure variation [1]: -9%
% heart rate variation [1]: -13%
% inhibition ST segment [1]: 64%
Number of arrythmias under reinfusion [1]: 4/6

COc1ccc([C@@H]2Sc3ccccc3N(CCN(C)C)C(=O)[C@@H]2OC(C)=O)cc1 [Diltiazem, reference compound]
% arterial pressure variation [1]: -27%
% heart rate variation [1]: -5%
% inhibition ST segment [1]: 61%
Number of arrythmias under reinfusion [1]: 0/6

CN(C1=Nc2ccccc2CS1)C1CCN(CCCCOc2ccc(F)cc2)CC1.O=C(O)/C=C\C(=O)O [Example 1, N-Methyl-N-[1-[4-(4-fluorophenoxy)butyl]piperid-4-yl]-4H-3,1-benzothiazin-2-amine hydrogen maleate]
IC50 [2]: 0.15 µM
% arterial pressure variation [1]: +6%
% heart rate variation [1]: +3%
% inhibition ST segment [1]: 76%
Number of arrythmias under reinfusion [1]: 3/5

CN(C1=Nc2ccccc2CS1)C1CCN(CCCOc2ccc(F)cc2)CC1.O=C(O)/C=C\C(=O)O [Example 2, N-Methyl-N-[1-[3-(4-fluorophenoxy)propyl]piperid-4-yl]-4H-3,1-benzothiazin-2-amine hydrogen maleate]
% arterial pressure variation [1]: +4%
% heart rate variation [1]: -3%
% inhibition ST segment [1]: 76%
Number of arrythmias under reinfusion [1]: 1/5

CN(C1=Nc2ccccc2CS1)C1CCN(CCCCOc2ccc(F)c(F)c2)CC1 [Example 11, N-Methyl-N-[1-[4-(3,4-difluorophenoxy)butyl]piperid-4-yl]-4H-3,1-benzothiazin-2-armine hydrogen maleate]
% arterial pressure variation [1]: +3%
% heart rate variation [1]: -1%
% inhibition ST segment [1]: 71%
Number of arrythmias under reinfusion [1]: 1/5

CN(C1=Nc2ccccc2CS1)C1CCN(CC(O)COc2ccc(F)cc2)CC1.Cl.Cl (centres unmarked) [Example 15, N-Methyl-N-[1-[2-hydroxy-3-(4-fluorophenoxy)propyl]-piperid-4-yl]-4H-3,1-benzothiazin-2-amine dihydrochloride]
IC50 [2]: 0.32 µM
% arterial pressure variation [1]: +5%
% heart rate variation [1]: 0%
% inhibition ST segment [1]: 90%
Number of arrythmias under reinfusion [1]: 1/5

CN(c1nc2ccccc2s1)C1CCN(CCCCOc2ccc(F)cc2)CC1 [R 56865, N-(1-(4-(4-fluorophenoxy)butyl)piperid-4-yl)-N-methyl-2-benzothiazolamine, reference compound]
IC50 [2]: 0.25 µM

CN(c1nc2ccccc2s1)C1CCN(CC(O)COc2ccc(F)cc2)CC1 (centres unmarked) [Sabeluzole, N-(1-(2-hydroxy-3-(4-fluorophenoxy)propyl)piperid-4-yl)-N-methyl-2-benzothiazolamine, reference compound]
IC50 [2]: 5.1 µM
% arterial pressure variation [1]: 2%
% heart rate variation [1]: -5%
% inhibition ST segment [1]: 84%
Number of arrythmias under reinfusion [1]: 1/5
